Reference: ChEMBL document CHEMBL1126222, “Investigation of conformational specificity at GPIIb/IIIa: evaluation of conformationally constrained RGD peptides” (J Med Chem, 1992)
pKi: −log10 of the molar value.

Assays:
[1] = molecular target: T1, Integrin alpha-IIb/beta-3 (Homo sapiens, UniProt P05106+P08514); test: Inhibition of [3H]Mba-(N-Me)Arg-Gly-Asp-Man binding to GPIIb/IIIa from human platelets reconstituted in liposomes
[2] = molecular target: T1, Integrin alpha-IIb/beta-3; test: Inhibition of [3H]Mba-(N-Me)Arg-Gly-Asp-Man binding to fibrinogen receptor of human platelets reconstituted in liposomes
[3] = molecular target: T1, Integrin alpha-IIb/beta-3; test: Inhibition of [3H]Mba-(N-Me)Arg-Gly-Asp-Man binding to Fibrinogen Receptor from human platelets reconstituted in liposomes

T1 sequence (P05106 27-788 limits assumed): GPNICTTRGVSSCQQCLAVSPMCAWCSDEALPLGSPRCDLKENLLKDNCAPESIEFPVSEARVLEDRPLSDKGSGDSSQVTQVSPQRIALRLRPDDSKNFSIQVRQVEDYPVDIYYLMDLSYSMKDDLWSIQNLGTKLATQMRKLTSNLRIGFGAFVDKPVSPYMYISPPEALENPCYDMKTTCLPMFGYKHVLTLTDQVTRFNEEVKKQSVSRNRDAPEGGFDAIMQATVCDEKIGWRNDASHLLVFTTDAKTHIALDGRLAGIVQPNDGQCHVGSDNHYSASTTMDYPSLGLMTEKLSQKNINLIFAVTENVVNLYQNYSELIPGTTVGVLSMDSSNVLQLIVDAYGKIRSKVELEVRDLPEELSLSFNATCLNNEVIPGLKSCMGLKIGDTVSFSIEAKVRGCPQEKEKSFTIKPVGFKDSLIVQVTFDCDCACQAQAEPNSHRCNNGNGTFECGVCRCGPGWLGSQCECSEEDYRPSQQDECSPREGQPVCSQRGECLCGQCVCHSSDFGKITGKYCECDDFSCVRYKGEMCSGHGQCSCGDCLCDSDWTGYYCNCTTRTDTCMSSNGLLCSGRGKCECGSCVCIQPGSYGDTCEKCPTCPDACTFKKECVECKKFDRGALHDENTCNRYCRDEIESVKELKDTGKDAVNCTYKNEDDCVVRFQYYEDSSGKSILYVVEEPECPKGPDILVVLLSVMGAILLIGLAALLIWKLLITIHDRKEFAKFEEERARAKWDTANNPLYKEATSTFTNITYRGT
T1 sequence (P08514 32-887 limits assumed): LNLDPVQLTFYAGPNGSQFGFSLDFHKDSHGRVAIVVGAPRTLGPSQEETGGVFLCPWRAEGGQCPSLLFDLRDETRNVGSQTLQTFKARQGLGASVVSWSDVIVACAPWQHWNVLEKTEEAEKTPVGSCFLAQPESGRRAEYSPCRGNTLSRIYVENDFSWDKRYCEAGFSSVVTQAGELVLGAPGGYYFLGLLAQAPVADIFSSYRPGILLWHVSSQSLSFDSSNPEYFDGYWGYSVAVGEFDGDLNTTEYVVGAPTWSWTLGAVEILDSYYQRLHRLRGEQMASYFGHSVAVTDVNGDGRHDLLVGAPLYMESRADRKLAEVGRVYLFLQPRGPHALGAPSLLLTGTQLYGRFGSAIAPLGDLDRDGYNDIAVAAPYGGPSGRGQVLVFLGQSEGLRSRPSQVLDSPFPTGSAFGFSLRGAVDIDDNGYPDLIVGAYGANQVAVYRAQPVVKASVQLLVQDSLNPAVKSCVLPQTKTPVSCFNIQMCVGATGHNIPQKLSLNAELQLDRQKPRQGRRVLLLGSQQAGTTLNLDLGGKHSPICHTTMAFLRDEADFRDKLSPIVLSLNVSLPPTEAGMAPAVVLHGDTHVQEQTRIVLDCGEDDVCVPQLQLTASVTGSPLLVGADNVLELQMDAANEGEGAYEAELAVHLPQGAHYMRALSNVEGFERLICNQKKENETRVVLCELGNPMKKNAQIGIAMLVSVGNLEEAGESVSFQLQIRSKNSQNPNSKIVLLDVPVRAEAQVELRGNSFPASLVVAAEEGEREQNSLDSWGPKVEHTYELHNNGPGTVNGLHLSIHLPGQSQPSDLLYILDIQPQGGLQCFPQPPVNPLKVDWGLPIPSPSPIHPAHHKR
T1 sequence (P08514 891-1039 limits assumed): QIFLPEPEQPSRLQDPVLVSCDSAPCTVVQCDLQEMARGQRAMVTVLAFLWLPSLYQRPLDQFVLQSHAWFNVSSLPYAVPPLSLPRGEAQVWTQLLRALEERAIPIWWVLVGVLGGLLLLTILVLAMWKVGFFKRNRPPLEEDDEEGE

| SMILES | pKi [1] | pKi [2] | other results |
| --- | --- | --- | --- |
| N=C(N)NCCC[C@@H]1NC(=O)[C@@H]2CCCN2C(=O)CNC(=O)[C@H]2CCCN2C(=O)[C@H](CC(=O)O)NC(=O)CNC1=O | < 4.00 |  |  |
| CC(=O)N[C@@H](CS)C(=O)N[C@H](CCCN=C(N)N)C(=O)NCC(=O)N[C@@H](CC(=O)O)C(=O)N[C@H](C(N)=O)C(C)(C)S |  | 5.48 |  |
| N=C(N)NCCC[C@@H]1NC(=O)[C@@H]2CCCN2C(=O)[C@@H](Cc2ccccc2)NC(=O)CNC(=O)[C@H](CC(=O)O)NC(=O)CNC1=O | 4.73 |  |  |
| CC(=O)N[C@@H](CS)C(=O)N[C@@H](CCCN=C(N)N)C(=O)NCC(=O)N[C@@H](CC(=O)O)C(=O)NC(C(N)=O)C(C)(C)S (stereo in doubt) |  |  | pKi [3]: 5.50 |

More lines, main results first:

| pKi [1] | pKi [2] | SMILES | other results |
| --- | --- | --- | --- |
|  | 8.40 | CN(C(=O)c1ccccc1S)[C@@H](CCCNC(=N)N)C(=O)NCC(=O)N[C@@H](CC(=O)O)C(=O)Nc1ccccc1S |  |
|  | 6.76 | CC(=O)N[C@@H](CS)C(=O)N(C)[C@@H](CCCN=C(N)N)C(=O)NCC(=O)N[C@@H](CC(=O)O)C(=O)N[C@H](C(N)=O)C(C)(C)S |  |
